Holding throughout (format): in vivo
The test system of assay [1] is blackgrass (Alopecurus myosuroides). The assay is described as follows: Test A postemergence. Particulars: Alopecurus myosuroides, post-emergence, 240 h, 125 g ai/ha, postemergence; visual injury after approximately 10 d; 0 to 100 scale (0 no effect, 100 complete control); read-out: Plant response rating, Blackgrass. An outline of the steps:
(§1)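 Preemergence soil spray on seeded pots or post-emergence spray on 1–2 leaf plants, in loam–sand blend. Greenhouse ~10 d. Visual rating 0–100 against untreated plants.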

In assay [2] the test system is wheat (Triticum aestivum). The assay is described as follows: Test A postemergence. The conditions noted are these: Triticum aestivum, post-emergence, 240 h, 125 g ai/ha, postemergence; visual injury after approximately 10 d; 0 to 100 scale (0 no effect, 100 complete control); read-out: Plant response rating, Wheat. An outline of the steps:
as §1

The test system of assay [3] is Galium (catchweed bedstraw, Galium aparine). In words: Test A postemergence. Particulars: Galium, post-emergence, 240 h, 125 g ai/ha, postemergence; visual injury after approximately 10 d; 0 to 100 scale (0 no effect, 100 complete control); read-out: Plant response rating, Galium. An outline of the steps:
as §1

For the next assay, the system named is corn (Zea mays). In words: Test A postemergence. The conditions noted are these: Zea mays, post-emergence, 240 h, 125 g ai/ha, postemergence; visual injury after approximately 10 d; 0 to 100 scale (0 no effect, 100 complete control). In outline: as §1
Assay [4] deals with pigweed (Amaranthus retroflexus). The assay is described as follows: Test A postemergence. The conditions noted are these: Amaranthus retroflexus, post-emergence, 240 h, 125 g ai/ha, postemergence; visual injury after approximately 10 d; 0 to 100 scale (0 no effect, 100 complete control); read-out: Plant response rating, Pigweed. An outline of the steps: as §1
Assay [5] concerns ryegrass, Italian (Italian ryegrass, Lolium multiflorum). In words: Test A postemergence. The conditions noted are these: Lolium multiflorum, post-emergence, 240 h, 125 g ai/ha, postemergence; visual injury after approximately 10 d; 0 to 100 scale (0 no effect, 100 complete control); read-out: Plant response rating, Ryegrass, Italian. An outline of the steps: as §1
For assay [6], the system named is barnyardgrass (Echinochloa crus-galli). The assay is described as follows: Test A postemergence. Particulars: Echinochloa crus-galli, post-emergence, 240 h, 125 g ai/ha, postemergence; visual injury after approximately 10 d; 0 to 100 scale (0 no effect, 100 complete control); read-out: Plant response rating, Barnyardgrass. In outline:
as §1

Assay [7] concerns ragweed (common ragweed, Ambrosia elatior). In words: Test A postemergence. The conditions noted are these: Ambrosia artemisiifolia, post-emergence, 240 h, 125 g ai/ha, postemergence; visual injury after approximately 10 d; 0 to 100 scale (0 no effect, 100 complete control); read-out: Plant response rating, Ragweed. An outline of the steps:
as §1

The test system of assay [8] is giant foxtail (Setaria faberii). In words: Test A postemergence. Particulars: Setaria faberi, post-emergence, 240 h, 125 g ai/ha, postemergence; visual injury after approximately 10 d; 0 to 100 scale (0 no effect, 100 complete control); read-out: Plant response rating, Foxtail, Giant. In outline: as §1
Assay [9] concerns Kochia (Kochia scoparia). In words: Test A postemergence. The conditions noted are these: Bassia scoparia, post-emergence, 240 h, 125 g ai/ha, postemergence; visual injury after approximately 10 d; 0 to 100 scale (0 no effect, 100 complete control); read-out: Plant response rating, Kochia. In outline: as §1
Assay [10] has as its system pigweed (Amaranthus retroflexus). The assay is described as follows: Test A preemergence. Particulars: Amaranthus retroflexus, pre-emergence, 240 h.
For assay [11], the system named is ryegrass, Italian (Italian ryegrass, Lolium multiflorum). The assay is described as follows: Test A preemergence. Particulars: Lolium multiflorum, pre-emergence, 240 h. An outline of the steps: as §1
Assay [12] has as its system ragweed (common ragweed, Ambrosia elatior). The assay is described as follows: Test A preemergence. The conditions noted are these: Ambrosia artemisiifolia, pre-emergence, 240 h. In outline:
as §1

In assay [13] the test system is giant foxtail (Setaria faberii). In words: Test A preemergence. The conditions noted are these: Setaria faberi, pre-emergence, 240 h. An outline of the steps: as §1
Assay [14] has as its system Kochia (Kochia scoparia). In words: Test A preemergence. The conditions noted are these: Bassia scoparia, pre-emergence, 240 h. In outline: as §1

Turning to `CC(F)(F)c1cccc([C@H]2CNC(=O)[C@@H]2C(=O)Nc2cccc(F)c2F)c1` [Compound 779], the pest or weed control at 125 g/ha in [1] stood at 70%; in assay [3], 60%; in [4], 0%; in [5], 40%; in assay [6], 90%; in assay [7] it was 20%. Also, the pest or weed control at 125 g/ha in assay [8] was found to be 80%; in the assay with Kochia (Kochia scoparia) [9] it was 30%; in assay [10] (125 g ai/ha, preemergence, visual rating after approx. 10 d, 0 to 100 scale where 0 is no effect and 100 is complete control, read-out: Plant response rating, Pigweed) it was 40%; in [11] (125 g ai/ha, preemergence, visual rating after approx. 10 d, 0 to 100 scale where 0 is no effect and 100 is complete control, read-out: Plant response rating, Ryegrass, Italian), 40%; in assay [12] (125 g ai/ha, preemergence, visual rating after approx. 10 d, 0 to 100 scale where 0 is no effect and 100 is complete control, read-out: Plant response rating, Ragweed) it was 20%; in assay [13] (125 g ai/ha, preemergence, visual rating after approx. 10 d, 0 to 100 scale where 0 is no effect and 100 is complete control, read-out: Plant response rating, Foxtail, Giant), 90%. Further, the pest or weed control at 125 g/ha with Kochia (Kochia scoparia) [14] (125 g ai/ha, preemergence, visual rating after approx. 10 d, 0 to 100 scale where 0 is no effect and 100 is complete control, read-out: Plant response rating, Kochia) is 70%. Further, the plant injury at 125 g/ha in [2] was found to be 80%. The Corn plant response rating (crop injury, 0 = no effect, 100 = complete kill) at 125 g/ha in the assay on corn (Zea mays) came to 80%. The pest or weed control at 500 g/ha in assay [10] (500 g ai/ha, Preemergence, visual injury vs untreated controls after approximately 10 d, read-out: Pigweed plant response rating (0 to 100 scale where 0 is no effect and 100 is complete control)) was 60%; in [11] (500 g ai/ha, Preemergence, visual injury vs untreated controls after approximately 10 d, read-out: Ryegrass, Italian plant response rating (0 to 100 scale where 0 is no effect and 100 is complete control)), 40%; in assay [12] (500 g ai/ha, Preemergence, visual injury vs untreated controls after approximately 10 d, read-out: Ragweed plant response rating (0 to 100 scale where 0 is no effect and 100 is complete control)), 70%; in assay [13] (500 g ai/ha, Preemergence, visual injury vs untreated controls after approximately 10 d, read-out: Foxtail, Giant plant response rating (0 to 100 scale where 0 is no effect and 100 is complete control)), 90%; in the assay with Kochia (Kochia scoparia) [14] (500 g ai/ha, Preemergence, visual injury vs untreated controls after approximately 10 d, read-out: Kochia plant response rating (0 to 100 scale where 0 is no effect and 100 is complete control)), 80%.
